Assay results published in US20230226047A1, “COMBINATION THERAPY FOR TREATMENT OF CANCERS” (Health Research, Inc., priority 2019, published 2023).
“Also recorded” adds a separate entry of the source.

How the values were obtained:
[1] = system: OVA-overexpressing TRAMP C2 cells; experiment: Flow cytometry of antigen-bound MHC (OVA-bound H2Kb); assay type: cell-based, murine; conditions: 48 hours, FIG. 7C-D
Source text: OVA overexpression: Soluble ovalbumin (OVA) gene, which was amplified from pCI-neo-sOVA (Addgene plasmid 25098), and monomeric enhanced green fluorescent protein (mEGFP) gene, which was amplified from mEGFP-N1 (Addgene plasmid 54767), were genetically fused via P2A translational skipping sequence and cloned in the Sleeping Beauty transposon plasmid with the human elongation factor 1α promoter. This plasmid, pT2-EF-OVA-mEGFP, was electroporated together with the Sleeping Beauty Transposase plasmid, pCMV(CAT)T7-SB100 (a gift from Zsuzsanna Izsvak; Addgene plasmid #34879), into TRAMP-C2 by Nucleofector 4D instrument. The electroporated cells were kept in maintenance medium (DMEM supplemented with 10% FBS, 0.005 mg/ml bovine insulin, 1 nM DHT and cell sorted based on mGFP expression using FACS Aria I cell sorter. The expression of OVA on sorted cells were confirmed by western blotting using rabbit polyclonal OVA antibody (ab186717) at 1:4000 dilution and flow cytometry using PE anti-mouse H-2K^b bound to SIINFEKL (BioLegend) before incubating with or without MCTP-39 for 48 hours. The expression of OVA was analyzed after 48 hours by flow cytometry using BDLSRIIA cytometer and data was analyzed by FCS express 7 Research Edition.

TRAMP C2 cells = experiment: Flow cytometry of MHC expression after MCTP-39 and IFNg treatment, murine TRAMP C2 cells; assay type: cell-based; conditions: combined treatment with MCTP-39 and IFNg, FIG. 7B
Description: (§1) Cell proliferation: Knock down of WHSC1 in C4-2 and TRAMP C-2 cells is discussed in previous sections. Cells were counted at 48, 96 and 144 hours. For pharmacological inhibition, cells either C4-2 or TRAMP C2 were seeded overnight at 4×10^3 cells per 100 μl media in a 96 well plate, the following day cells were treated with vehicle control or different concentrations of MCTP-39 (0-10 μM) for 48 hours. After 48 hours, C4-2 or TRAMP C-2 cells were either counted or used for staining with MHCI/II antibodies. Briefly cells were detached using trypsin and washed with FACS buffer for 5 minutes at 300 g. The pellet was resuspended in FACS buffer and stained with MHC-I/II antibodies for 20 minutes at 4 C. After incubation, cells were washed with FACS buffer 2× and resuspended in 200 μl of FACS buffer before acquiring the data on a flow cytometer.

C42 cells = experiment: Flow cytometry of MHC expression after MCTP-39 and IFNg treatment, human C42 cells; assay type: cell-based; conditions: combined treatment with MCTP-39 and IFNg, FIG. 7A
Description: as §1

[2] = system: TRAMP C2 cells grafted in NSG mice; experiment: TRAMP C2 subcutaneous graft in immunocompromised NSG mice; assay type: in vivo, mouse; conditions: 10 mg/kg, four weeks, p=0.1461, permutation test, FIG. 8B
Description: (§2) Immunotherapy in prostate cancer (PCa) lags behind the progresses obtained in other cancer types partially because of its limited immune infiltration. While a few studies reported increased homing of immune cells in response to androgen deprivation therapy (ADT), the mechanism by which this occurs is still poorly understood. Using TCGA PCa RNASeq data patients were divided into top/bottom 30% based on the expression of WHSC1 and DFS was calculated for both groups. Publicly available ChIPSeq data were obtained from Cistrome and integrated with the available RNASeq data. RNASeq, ATACSeq and EPIC Infinium MethylArrays were analyzed using R Bioconductor packages comparing C42 cells with or without stable knockdown on WHSC1. Flow cytometry was used to measure MHC levels, MHC-bound OVA and tumor infiltration. C57B6 and NSG mice were subcutaneously grafted with TRAMP C2 cells and treated with MCTP39 (10 mg/kg); tumor size was monitored over time and curves compared using permutation analyses. All analyses use a significance threshold of 0.05.
Mice and in vivo experiments: Male C57B/6J mice (6-8 weeks of age) and NSG mice (10-12 weeks of age) were obtained from the Roswell Park's Center For Immunotherapy breeding colonies. […] Tumor volume was monitored weekly with an electronic caliper and calculated as V=(W^2×L)/2, where Vis tumor volume, W is tumor width and L is tumor length. […]

[3] = system: TRAMP C2 cells grafted in C57B/6 mice; experiment: TRAMP C2 subcutaneous graft in immunocompetent C57B/6 mice; assay type: in vivo, mouse
Description: as §2
Mice and in vivo experiments: Male C57B/6J mice (6-8 weeks of age) and NSG mice (10-12 weeks of age) were obtained from the Roswell Park's Center For Immunotherapy breeding colonies. All in vivo experiments were made following institutional and IACUC regulations. In vivo experiments were not blinded. C2 cells (1×10^6 cells/100 μl) were injected subcutaneously into the right flank of male C57BL/6J mice (n=6/group) or NSG mice (n=5/group) using a 27 G needle. Sample size was chosen based on pilot studies and chosen to include the potential loss of mice prior treatment. Tumor volume was monitored weekly with an electronic caliper and calculated as V=(W^2×L)/2, where Vis tumor volume, W is tumor width and L is tumor length. When tumors reached 100 mm^3, mice were randomized prior treatment with either MCTP-39 (10 mg/kg 5×/week/4 weeks) or vehicle control. Mice were euthanized either when tumors reached […] in any dimension, as per Institutional IACUC regulations, when mice show signs of advanced disease or after 4 weeks of treatment. Tumors were harvested and weighted, single cells suspension was prepared using the Tumor dissociation kit (Miltenyi Biotech) as per manufacturing instructions prior flow cytometry analysis.
Flow cytometry and antibodies: Single cell suspension from tumors was stained the antibodies listed in Table S3 (FIG. 14) for 20 min at 4° C. After staining, cells were washed and fixed with fixation buffer for 15 min at 4° C. followed by washing 2× with FACS buffer. Cells were resuspended in 200 μl of FACS buffer before acquiring data on BDLSR IIA flow cytometer. Data were analyzed using FCS express 7 Research Edition.
Statistical methods: Survival analysis was performed dividing patients based on the upper/lower 25% of the expression levels of WHSC1, significance, HR and confidence intervals were calculated using cox proportional hazard model available in the R package survival. […] Significance for the AUC analysis was calculated by simulating 10,000 AUCs using randomly selected genes in the RNASeq dataset. The empirical p value was calculated by dividing the number of expected/simulated AUCs higher than our observed value by 10,000 (number of simulations). Significance when comparing two groups was calculated via two-tailed Student's t.test at a significance threshold of 0.05. […]

[4] = C57B/6 mice, tumors at endpoint, flow cytometry, FIG. 8C

For `NNc1nc2ccccc2[nH]c1=S` [MCTP39], the “OVA-bound H2Kb fraction” value [1] was “increased”, the “upregulating murine H2Kb I-A/I-E” value (TRAMP C2 cells) was “additive effect” and the “upregulating HLA-B7, HLA-F, HLA-E, HLA-DQ, HLA-DM” value (C42 cells) was “additive effect”. The Tumor growth [2] was “limited and non-significant effect; also recorded: Not Significant; also recorded: not observed”, the Tumor growth ([3]; C57B/6 mice, 10 mg/kg IP for four weeks, p=0.0023, permutation test, FIG. 8A, 10 mg/kg) was “significantly reduced” and the Tumor weight ([3]; C57B/6 mice, at endpoint, FIG. 8C) was “reduced”. The “CD8+ T cells infiltration” value [3, 4] was “increased”, the “H2Kb (MHC) expression on the tumor” value [3, 4] was “increased” and the “intratumoral CD8+PD1+ T cells” value ([3]; preliminary in vivo data) was “may increase”.
